Patent publication US9067920B2, “Compounds useful for inhibiting Chk1” (Eli Lilly and Company, priority 2010, dated 2015)
Structures can show the parent of a compound that is named as a salt.

Key:
Chk1 = target: T1, Chk1 (Homo sapiens, UniProt O14757); test: Chk1 autophosphorylation cell based assay (phospho-Chk1 serine 296 immunoblot, doxorubicin-treated HeLa cells); parameters: endogenous in cells; host or cells: HeLa; conditions: 100 nM doxorubicin, 2 h compound, read-out: EC50 (inhibition of doxorubicin induced Chk1 autophosphorylation)
T1 sequence (O14757 1-476): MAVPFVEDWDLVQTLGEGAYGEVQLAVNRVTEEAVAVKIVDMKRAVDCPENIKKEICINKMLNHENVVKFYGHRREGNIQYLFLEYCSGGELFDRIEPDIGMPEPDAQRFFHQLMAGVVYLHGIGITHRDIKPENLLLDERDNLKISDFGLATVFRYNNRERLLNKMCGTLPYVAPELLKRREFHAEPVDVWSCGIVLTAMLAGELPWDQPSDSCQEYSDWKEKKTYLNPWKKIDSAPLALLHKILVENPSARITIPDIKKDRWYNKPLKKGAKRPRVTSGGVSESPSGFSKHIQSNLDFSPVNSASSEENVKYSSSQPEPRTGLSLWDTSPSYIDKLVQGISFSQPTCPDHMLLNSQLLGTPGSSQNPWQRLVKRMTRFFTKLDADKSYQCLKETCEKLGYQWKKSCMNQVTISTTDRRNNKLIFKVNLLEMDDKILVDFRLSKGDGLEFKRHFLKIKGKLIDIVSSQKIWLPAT
Protocol: An inhibitor of Chk1 will prevent the kinase activity of the protein from phosphorylating substrates in cells in which the DNA damage response has been activated. An easily detectable substrate for Chk1 is an autophosphorylation site on Chk1 itself, serine 296. The following immunoblot assay can be used to measure the amount of phosphorylation of serine 296 on Chk1 and indirectly the activity level of the Chk1 protein kinase, HeLa cells are cultured in MEM w/Earle's Balanced Salt Solution with L-glutamine supplemented with 10% (v/v) heat inactivated fetal bovine serum, 1×MEM non-essential amino acids, 1× sodium pyruvate and 1×10^5 cells plated in 600 μL of MEM culture media per well of a […] cell culture plate. Cells are incubated for 24 h at 37° C., 5% CO2 and […]. Sixteen μL of a 4 μM stock of doxorubicin in culture media are added to each appropriate well to make a final concentration of 100 nM doxombicin. Plates are returned to the incubator for 24 additional hours prior to Chk1 inhibitor compound addition. […] Antigen-antibody-reporter conjugates immobilized on the membrane are detected with the Super Signal Western Femto HRP-detection reagent using a FUJI LAS-4000 imaging system. Phospho-Chk1 (ser296) band intensities are calculated using “Total Lab” software (Nonlinear Dynamics). […]

[1] = system: HT-29 colon tumor xenograft; test: HT-29 tumor xenograft model, oral administration of Chk1 inhibitor; assay type: in vivo, nude mice
Protocol: The ability of Chk1 inhibitors to potentiate tumor killing by DNA damaging agents can be determined in vivo using the Calu-6 lung and HT-29 colon tumor xenograft efficacy models. Calu-6 lung cancer cells are cultured in growth media (MEM with Earle's Balanced Salt Solution with L-glutamine supplemented with 10% (v/v) heat inactivated FBS, 1×MEM non-essential amino acids, 1× sodium pyruvate) and HT-29 colon cancer cells (ATCC) are cultured in growth media, (McCoy's 5A medium supplemented with 10% FBS) and expanded.
Cells are harvested and washed twice with phosphate buffered saline and 5×10^6 cells (HT-29) or 1×10^6 a cells (Calu-6) in growth media (without serum) are mixed with equal volume of BD Matrigel™ matrix, then injected subcutaneously into the flank of nude mice (CD-1 nu/nu).
At about day 16 after implant (150-200 mm^3), gemcitabine is formulated fresh in saline daily and administered to animals by intraperitoneal route at 40 mg/kg dose. Twenty four hours later animals are administered Chk1 compound, in 0.2% Tween-80/0.5% methylcellulose by the oral route MD. After three days of rest, dosing was repeated for three additional cycles (Q5Dx4 with the compound of Example 3 offset+24 hours). Tumor growth inhibition (TGI) is calculated as described in the previous paragraph. Compounds within the scope of the invention are tested in this assay run substantially as above.

| EC50 (Chk1) | SMILES | % TGI at day 50 ([1]; HT29, Example 3 30 mpk oral alone) | anti-tumor activity in combination with gemcitabine ([1]; HT-29 xenograft, oral, gemcitabine 40 mg/kg ip) | increase in tumor growth inhibition over gemcitabine alone ([1]; oral, stated for HT-29 and Calu-6 models together) |
| --- | --- | --- | --- | --- |
| < 1 nM | COc1nc(C)ccc1-c1cc(Nc2cncc(O[C@@H]3CCCNC3)n2)[nH]n1 [Example 1, (R)-[5-(2-Methoxy-6-methyl-pyridin-3-yl)-2H-pyrazol-3-yl]-[6-(piperidin-3-yloxy)-pyrazin-2-yl]-amine] | – | – | – |
| – | COc1nc(C)ccc1-c1cc(Nc2cncc(O[C@@H]3CCCNC3)n2)[nH]n1 [Example 3, (R)-[5-(2-Methoxy-6-methyl-pyridin-3-yl)-2H-pyrazol-3-yl]-[6-(piperidin-3-yloxy)-pyrazin-2-yl]-amine acetic acid salt] | 39% | excellent dose dependent anti-tumor activity | ≤ 2,9 fold |
